ChEMBL document CHEMBL5113530, “Butyrylation Meets Adipogenesis-Probed by a p300-Catalyzed Acylation-Specific Small Molecule Inhibitor: Implication in Anti-obesity Therapy” (J Med Chem, 2022)
Active and inactive are the calls of the source. No cut-off for these calls is given here.

What was measured:
[1] = Toxicity in male Sprague-Dawley rat assessed as average water intake measured per day at 500 mg/kg, po administered as single dose measured on day 1 (Rvb =32 ml/day); type: organism-based; conditions: in vivo, 24 h, time 1 day
3T3-L1 [2] = assay: Anti-adipogenic activity against mouse 3T3-L1 cells assessed as downregulation of FABP4 mRNA expression at 25 uM measured after 7 days by qRT-PCR analysis; type: functional, cell-based; conditions: time 7.0 day
[3] = test system: Histone acetyltransferase p300 (Homo sapiens), Q09472 [C1438A]; assay: Inhibition of […] His-tagged EP300 C1438A mutant catalytic domain catalyzed acetylation (unknown origin) expressed in Escherichia coli BL21 (DE3) using Histone H3 as substrate at 25 uM preincubated with compound for 10 mins followed by acetyl-CoA addition and measured after 10 mins by Western blot analysis; conditions: time 20.0 min
[4] = Toxicity in male Sprague-Dawley rat assessed as effect on body weight at 500 mg/kg, po administered as single dose measured on day 14 (Rvb =231.13 +/- 18.38 g); type: organism-based; conditions: in vivo, 336 h, time 14 day
3T3-L1 [5] = assay: Anti-adipogenic activity against mouse 3T3-L1 cells assessed as downregulation of SLC2A4 mRNA expression at 25 uM measured after 7 days by qRT-PCR analysis; type: functional, cell-based; conditions: time 7.0 day
[6] = Toxicity in female Sprague-Dawley rat assessed as average food intake at 1000 mg/kg, po administered as single dose measured on day 14 (Rvb =15.95 g/day); type: organism-based; conditions: in vivo, 336 h, time 14 day
[7] = Stability of compound in mouse 3T3-L1 cells measured after 6 days by LC-ESI-MS analysis; type: ADME, cell-based; conditions: 3t3-l1, 144 h, time 6 day
[8] = Toxicity in male Sprague-Dawley rat assessed as average food intake at 1000 mg/kg, po administered as single dose measured on day 1 (Rvb =20.38 g/day); type: organism-based; conditions: in vivo, 24 h, time 1 day
[9] = Toxicity in male Sprague-Dawley rat assessed as effect on body weight at 500 mg/kg, po administered as single dose measured on day 7 (reference value: 217.38 +/- 11.38 g); type: organism-based; conditions: in vivo, 168 h, time 7 day
[10] = Toxicity in female Sprague-Dawley rat assessed as effect on body weight at 250 mg/kg, po administered as single dose measured on day 14 (Rvb =171.5 +/- 6.65 g); type: organism-based; conditions: in vivo, 336 h, time 14 day
[11] = Toxicity in male Sprague-Dawley rat assessed as average food intake at 500 mg/kg, po administered as single dose measured on day 7 (Rvb =20.24 g/day); type: organism-based; conditions: in vivo, 168 h, time 7 day
[12] = Toxicity in female Sprague-Dawley rat assessed as average water intake measured per day at 250 mg/kg, po administered as single dose measured on day 7 (Rvb =21 ml/day); type: organism-based; conditions: in vivo, 168 h, time 7 day
[13] = Toxicity in female Sprague-Dawley rat assessed as average food intake at 250 mg/kg, po administered as single dose measured on day 7 (Rvb =15.65 g/day); type: organism-based; conditions: in vivo, 168 h, time 7 day
[14] = Mutagenicity in Salmonella typhimurium TA97a assessed as number of revertants measured per plate at 10 to 1000 incubated for 48 hrs in presence of rat liver S9 fraction by plate incorporation assay; type: toxicity; conditions: salmonella enterica subsp. enterica serovar typhimurium, s9, 48 h, dose 10-1000 µg
Mus musculus [15] = assay: Anti-obesity activity in C57BL6/J mouse model of high fat diet-induced obesity assessed as inhibition of H4K5 butyrylation level in liver at 50 mg/kg by DAPI staining based immunofluorescence microscopic analysis; type: functional, organism-based
[16] = Toxicity in female Sprague-Dawley rat assessed as effect on body weight at 1000 mg/kg, po administered as single dose measured on day 7 (Rvb =169.81 +/- 6.57 g); type: organism-based; conditions: in vivo, 168 h, time 7 day
Mus musculus [17] = assay: Anti-obesity activity in db/db mouse assessed as reduction in H4K5 butyrylation level in liver at 50 mg/kg, po qd administered for 30 days by DAPI staining based immunofluorescence microscopic analysis; type: functional, organism-based; conditions: time 30.0 day
[18] = Toxicity in male Sprague-Dawley rat assessed as average water intake measured per day at 250 mg/kg, po administered as single dose measured on day 1 (Rvb =32 ml/day); type: organism-based; conditions: in vivo, 24 h, time 1 day
[19] = molecular target: Histone acetyltransferase p300 (Homo sapiens) (UniProt Q09472); assay: Inhibition of wild-type His-tagged EP300 catalytic domain catalyzed butyrylation (unknown origin) expressed in Escherichia coli BL21 (DE3) using Histone H3 as substrate at 25 uM preincubated with compound for 10 mins followed by butyryl-CoA addition and measured after 10 mins by Western blot analysis; conditions: time 20.0 min
[20] = Mutagenicity in Salmonella typhimurium TA98 assessed as number of revertants measured per plate at 10 to 1000 incubated for 48 hrs in absence of rat liver S9 fraction by plate incorporation assay; type: toxicity; conditions: salmonella enterica subsp. enterica serovar typhimurium, s9, 48 h, dose 10-1000 µg
[21] = Toxicity in female Sprague-Dawley rat assessed as average water intake measured per day at 1000 mg/kg, po administered as single dose measured on day 7 (Rvb =21 ml/day); type: organism-based; conditions: in vivo, 168 h, time 7 day
3T3-L1 [22] = assay: Anti-adipogenic activity against mouse 3T3-L1 cells assessed as downregulation of CEBPD mRNA expression at 25 uM measured after 7 days by qRT-PCR analysis; type: functional, cell-based; conditions: time 7.0 day
[23] = Toxicity in male Sprague-Dawley rat assessed as effect on body weight at 250 mg/kg, po administered as single dose measured on day 1 (reference value: 174.75 +/- 7.61 g); type: organism-based; conditions: in vivo, 24 h, time 1 day
[24] = Mutagenicity in Salmonella typhimurium TA100 assessed as number of revertants measured per plate at 10 to 1000 incubated for 48 hrs in presence of rat liver S9 fraction by plate incorporation assay; type: toxicity; conditions: salmonella enterica subsp. enterica serovar typhimurium, s9, 48 h, dose 10-1000 µg
Mus musculus [25] = assay: Anti-obesity activity in db/db mouse assessed as inhibition of lep gene expression at 50 mg/kg, po qd administered for 30 days by qRT-PCR analysis; type: functional, organism-based; conditions: time 30.0 day
[26] = Toxicity in female Sprague-Dawley rat assessed as effect on body weight at 500 mg/kg, po administered as single dose measured on day 7 (Rvb =169.81 +/- 6.57 g); type: organism-based; conditions: in vivo, 168 h, time 7 day
3T3-L1 [27] = assay: Anti-adipogenic activity against mouse 3T3-L1 cells assessed as downregulation of ADIPOQ mRNA expression at 25 uM measured after 7 days by qRT-PCR analysis; type: functional, cell-based; conditions: time 7.0 day
[28] = Toxicity in female Sprague-Dawley rat assessed as average water intake measured per day at 1000 mg/kg, po administered as single dose measured on day 14 (Rvb =26 ml/day); type: organism-based; conditions: in vivo, 336 h, time 14 day
[29] = Toxicity in female Sprague-Dawley rat assessed as average food intake at 500 mg/kg, po administered as single dose measured on day 1 (Rvb =17.84 g/day); type: organism-based; conditions: in vivo, 24 h, time 1 day
[30] = Toxicity in male Sprague-Dawley rat assessed as average food intake at 1000 mg/kg, po administered as single dose measured on day 14 (Rvb =21.24 g/day); type: organism-based; conditions: in vivo, 336 h, time 14 day

Sequence of Histone acetyltransferase p300 (Homo sapiens) (Q09472 whole entry, the tested form may be a part): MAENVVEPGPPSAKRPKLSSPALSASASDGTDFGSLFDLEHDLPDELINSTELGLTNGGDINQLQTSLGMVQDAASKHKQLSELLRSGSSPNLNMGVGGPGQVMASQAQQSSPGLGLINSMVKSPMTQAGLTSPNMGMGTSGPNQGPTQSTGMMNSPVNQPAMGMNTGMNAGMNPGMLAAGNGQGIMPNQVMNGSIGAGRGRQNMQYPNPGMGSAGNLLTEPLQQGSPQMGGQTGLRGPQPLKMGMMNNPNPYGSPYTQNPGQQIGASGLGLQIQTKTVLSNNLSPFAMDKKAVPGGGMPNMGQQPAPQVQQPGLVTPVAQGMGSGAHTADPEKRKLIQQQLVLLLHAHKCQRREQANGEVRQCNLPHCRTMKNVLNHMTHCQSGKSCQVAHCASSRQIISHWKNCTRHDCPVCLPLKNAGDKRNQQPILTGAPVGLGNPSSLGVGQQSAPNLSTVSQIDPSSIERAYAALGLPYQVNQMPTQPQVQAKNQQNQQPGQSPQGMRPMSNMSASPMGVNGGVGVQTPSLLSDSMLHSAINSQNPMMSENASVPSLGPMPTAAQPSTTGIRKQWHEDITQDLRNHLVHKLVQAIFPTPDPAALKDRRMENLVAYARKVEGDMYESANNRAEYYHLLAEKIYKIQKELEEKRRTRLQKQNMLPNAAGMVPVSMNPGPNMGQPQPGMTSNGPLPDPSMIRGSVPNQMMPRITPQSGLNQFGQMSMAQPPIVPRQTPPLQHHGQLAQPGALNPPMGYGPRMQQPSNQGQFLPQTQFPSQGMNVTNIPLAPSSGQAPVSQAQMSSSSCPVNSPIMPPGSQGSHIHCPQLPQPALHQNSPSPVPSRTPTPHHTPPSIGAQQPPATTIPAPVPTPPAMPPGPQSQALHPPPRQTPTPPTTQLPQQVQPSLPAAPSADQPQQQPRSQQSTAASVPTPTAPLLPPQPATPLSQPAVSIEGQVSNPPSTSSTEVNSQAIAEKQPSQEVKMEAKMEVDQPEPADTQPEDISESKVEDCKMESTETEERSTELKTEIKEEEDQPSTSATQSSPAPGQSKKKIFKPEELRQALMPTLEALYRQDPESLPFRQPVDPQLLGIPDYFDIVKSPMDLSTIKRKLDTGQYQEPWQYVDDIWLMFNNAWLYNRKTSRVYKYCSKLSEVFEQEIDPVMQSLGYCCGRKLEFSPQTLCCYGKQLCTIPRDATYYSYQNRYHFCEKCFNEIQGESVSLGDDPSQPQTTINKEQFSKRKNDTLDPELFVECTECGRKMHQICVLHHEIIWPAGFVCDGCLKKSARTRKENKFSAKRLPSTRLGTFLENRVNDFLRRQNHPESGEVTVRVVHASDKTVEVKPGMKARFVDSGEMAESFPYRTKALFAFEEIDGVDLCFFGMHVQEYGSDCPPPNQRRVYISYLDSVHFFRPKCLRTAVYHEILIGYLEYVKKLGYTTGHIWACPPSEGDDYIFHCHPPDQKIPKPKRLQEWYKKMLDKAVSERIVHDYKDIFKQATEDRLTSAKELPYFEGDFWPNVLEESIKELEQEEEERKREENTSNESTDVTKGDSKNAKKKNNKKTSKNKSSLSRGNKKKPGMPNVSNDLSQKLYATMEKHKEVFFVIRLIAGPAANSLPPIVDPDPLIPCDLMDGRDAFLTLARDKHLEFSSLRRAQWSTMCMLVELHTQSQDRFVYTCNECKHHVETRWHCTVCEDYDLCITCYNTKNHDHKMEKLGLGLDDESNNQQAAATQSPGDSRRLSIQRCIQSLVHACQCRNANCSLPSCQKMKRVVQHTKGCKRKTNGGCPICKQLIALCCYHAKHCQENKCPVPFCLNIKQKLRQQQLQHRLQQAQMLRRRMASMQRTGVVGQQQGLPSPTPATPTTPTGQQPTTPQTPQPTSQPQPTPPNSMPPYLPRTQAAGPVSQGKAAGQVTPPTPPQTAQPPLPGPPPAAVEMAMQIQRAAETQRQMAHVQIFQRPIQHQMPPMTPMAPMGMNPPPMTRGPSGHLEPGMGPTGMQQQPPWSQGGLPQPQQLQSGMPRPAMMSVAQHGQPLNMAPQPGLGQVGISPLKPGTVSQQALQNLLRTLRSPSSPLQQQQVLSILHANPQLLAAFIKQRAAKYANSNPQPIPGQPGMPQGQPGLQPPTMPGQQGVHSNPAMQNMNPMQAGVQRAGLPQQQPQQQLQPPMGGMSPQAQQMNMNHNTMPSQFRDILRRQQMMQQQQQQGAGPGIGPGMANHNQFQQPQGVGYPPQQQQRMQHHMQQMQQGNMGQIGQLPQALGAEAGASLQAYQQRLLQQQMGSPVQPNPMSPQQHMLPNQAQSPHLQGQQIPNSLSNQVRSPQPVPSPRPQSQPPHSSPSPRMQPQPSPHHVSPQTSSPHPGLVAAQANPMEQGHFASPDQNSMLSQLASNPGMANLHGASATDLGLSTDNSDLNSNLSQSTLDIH
Sequence of Histone acetyltransferase p300 (Homo sapiens), Q09472 [C1438A] (Q09472 whole entry C1438A, the tested form may be a part): as the sequence (Q09472 whole entry, the tested form may be a part) above, with C1438A counted along it

With COc1ccc(C(=O)C2=C3OC(C)(C)[C@@H](CC=C(C)C)C[C@@]34C[C@@H](CC=C(C)C)C(C)(C)[C@](CC=C(C)C)(C2=O)C4=O)cc1OC the Activity [1] was 36 mL, the Activity (3T3-L1 [2]) was “Active” and the inhibition [3] was “Active”. The Activity [4] was 243.14 g, the Activity (3T3-L1 [5]) was “Active” and the Activity [6] was 16.97 g/day. For the same compound, the Stability [7] was “Stable”, the Activity [8] was 20.76 g/day and the Activity [9] was 229.75 g. The Activity [10] was 176.35 g, the Activity [11] was 21.14 g/day and the Activity [12] was 21 mL. The Activity [13] was 16.32 g/day, the Activity [14] was “Non-Toxic” and the Activity (Mus musculus [15]) was “Active”. The Activity [16] was 178.58 g, the Activity (Mus musculus [17]) was “Active” and the Activity [18] was 32 mL. For the same compound, the inhibition [19] was “Active”, the Activity [20] was “Non-Toxic” and the Activity [21] was 22 mL. For the same compound, the Activity (3T3-L1 [22]) was “Active”, the Activity [23] was 171.94 g and the Activity [24] was “Non-Toxic”. For the same compound, the Activity (Mus musculus [25]) was “Active”, the Activity [26] was 176.55 g and the Activity (3T3-L1 [27]) was “Active”. It also gave an Activity [28] of 32 mL, an Activity [29] of 18.22 g/day and an Activity [30] of 19.95 g/day.
